Format in all cases: cell-based, human
Assay [1] deals with A2058 CAI resistant cells. The experiment in a line: Culture of CAI resistant cells (A2058). Conditions: chronic culture under continuous CAI, 10, 20, 30 and 40 μM. As for the experimental part: (§1) Low passage (passage 13) parental human melanoma cells (A2058), and human ovarian cancer cells (OVCAR3) were cultured in Dulbecco's Modified Eagles medium (DMEM) supplemented with 10% fetal calf serum (FCS) and pen/strep (penicillin and streptomycin). Over a period of 24 to 30 months, the cells were incubated with increasing concentrations of CAI starting with 0.1 μM and reaching 45 μM. The CAI, obtained from the Developmental Therapeutics Program of the National Cancer Institute, was dissolved in DMSO and aliquots were stored at −70° C. until used. The diluted CAI was added directly into the media as required. Continuous selective pressure with CAI was maintained throughout culture and was maintained throughout all experiments.
No overt differences in morphology of the A2058 CAI resistant cells was observed.

The test system of assay [2] is CAIR-1. The assay can be described thus: Northern analysis of CAIR-1 expression in A2058-20R versus parental A2058 cells. Conditions: A2058-20R (20 μM CAI) vs parental A2058 total RNA, compared to GAPDH housekeeping gene control. An excerpt:
The subtracted probe was first hybridized against a Northern blot of total RNA from parental A2058 cells and CAI resistant A2058-20R cells. Increased expression of a number of transcripts was seen (FIG. 1, upper left panel). Re-hybridization of the blot with radiolabeled GAPDH as a housekeeping gene confirmed the […] (FIG. 1, lower left panel).
A cDNA library was constructed from A2058-20R cells by Stratagene (La Jolla, Calif., USA). The library was probed using standard approaches (Id.) and the positive probes were plaque purified. Forty-one clones were selected and 35 were determined to be nonoverlapping by restriction digest. Fifteen were randomly selected for determination of their expression by Northern analysis. Inserts were purified by low melting point agarose gel electrophoresis and then radiolabeled with standard random primer conditions (Amersham, Little Chalfont, Bucks, United Kingdom) and hybridized with a Northern of parental (wildtype) total RNA and RNA from A2058-20R cells. […] The CAIR-1 cDNA (clone 21DBB insert) was sequenced using standard dideoxy-sequencing (SequenaseII kit) with 35S-dATP label. The cDNA sequence is shown in Seq. Id No. 1.

The test system of assay [3] is OVCAR3 cells. The assay can be described thus: Culture of CAI resistant cells (OVCAR3). The conditions noted are these: cells chronically resistant to 10 μM and 20 μM CAI. As for the experimental part: as §1, with “experiments. OVCAR3 cells chronically resistant to 10 μM and 20 μM CAI were also established.” for “experiments.”

Take `NC(=O)c1nnn(Cc2cc(Cl)c(C(=O)c3ccc(Cl)cc3)c(Cl)c2)c1N` [CAI, Carboxyamido-triazole]: in assay [1], the “growth rate of A2058 CAI resistant cells” value is recorded as “not attenuated until the 40 μM treatment in which it decreased somewhat”. In assay [2], the “increased expression of CAIR-1 cDNA (clone 21DBB) in response to culture with CAI” value was 3.8 fold. In addition, in assay [3], the “growth rates of OVCAR3 cells in the CAI treatments” value was “slightly lower growth rates”.
